Assay results taken from publication PMC8049364, “Quantification of Macrophage-Driven Inflammation During Myocardial Infarction with ^18F-LW223, a Novel TSPO Radiotracer with Binding Independent of the rs6971 Human Polymorphism” (Journal of Nuclear Medicine, 2021).

Assays:
[1] = Plasma free fraction by ultrafiltration; type: in vitro ADME; settings: Sprague-Dawley, rat, mean ± SEM, n = 5, read-out: parent free fraction in plasma
Method: kept on ice until analyzed. Radioactivity in whole blood and plasma, as well as homogenized tissue samples, was assessed using a well-type γ-counter using a 400– 1400 keV window (Perkin Elmer Wizzard2, USA). Plasma samples (400 μl) and tissue samples (500 μl) were processed by acetonitrile denaturation (1:1.4 v/v) and analyzed by HPLC (Ultimate2000, ThermoFisher, UK) on a Luna C18(2) 10×250 mm, 10 μm column (Phenomenex, UK) with acetonitrile/water 70/30 and flow rate of 4 mL/min to estimate the parent fraction. The plasma fp was determined using ultrafiltration units (Centrifree® 30K, […]
Simulation of Changes in 18F-LW223 BPND for varying blood flow scenarios Simulation work was carried out using a Matlab (MathWorks, USA) 2-tissue compartment code with Ordinary Differential Equation (ODE) solvers. Six different levels of K1 values (0.9, 0.7, 0.5, 0.3, 0.1 and 0.01 mL/min/cc) were tested with fixed k2 and vB=0.05. The following BPND values were simulated: 4, 10, 16 and 20; with k3 modified and k4 fixed. All micro parameters used in the simulations are shown in Supplementa l Table 5. The input function used was an average of the blood curve s taken from healthy animals using the SwissTrace blood sampler (Supplemental Data File 1). The plasma to whole blood ratio used was 1.84 and the AIF was metabolite corrected using a population based curve as in the experimental data. […]

[2] = Dosimetry from whole-body PET in mice (OLINDA/EXM, estimated for humans); type: in vivo
Method: Thirty-two PET scans were performed with ^18F-LW223 (17.8 ± 1.5 MBq, intravenous bolus, mean ± SEM). Naïve and MI rat scans were acquired immediately after intravenous bolus injection of ^18F-LW223. […] Dosimetry studies were conducted using mice and 240-min PET scans.
The following organs were identified as source organs: brain, heart, lung, gallbladder, liver, gut, adrenals, kidneys, and bladder. A whole-body VOI was drawn around the animal body and was used to quantify whole-body remainder activity as whole-body activity minus source-organ activity. At each time point, the measured activity of the source organs was expressed as the percentage injected dose. The residence time (τ), defined as the ratio of accumulated activity in the target organ (Ā) and injected activity (A0) (i.e., τ = Ā/A0 ([20])), was calculated as previously described ([21]). Calculated τ was normalized on the basis of the factors shown in Supplemental Table 3 ([22]–[26]) and entered into OLINDA/EXM software, version 1.0, to estimate organ doses and effective doses.
Organ Mouse Human Correction Factor
% Total body weight % Total body weight
Supplemental Table 3. Scaling factors for different organs in mice and humans based on their percentage contribution to total body weight. Data presented in this table was calculated based on previously published data.

fraction unbound [1]: 0.385
Effective dose ([2]; Female (n = 5)): 0.02 mSv/MBq
Estimated absorbed dose, Adrenals ([2]; Female (n = 5)): 3.67 ×10^−2 mGy/MBq
Estimated absorbed dose, Brain ([2]; Female (n = 5)): 0.56 ×10^−2 mGy/MBq
Estimated absorbed dose, Breasts ([2]; Female (n = 5)): 0.86 ×10^−2 mGy/MBq
Estimated absorbed dose, Gallbladder wall ([2]; Female (n = 5)): 2.46 ×10^−2 mGy/MBq
Estimated absorbed dose, Heart wall ([2]; Female (n = 5)): 1.89 ×10^−2 mGy/MBq
Estimated absorbed dose, Kidneys ([2]; Female (n = 5)): 1.54 ×10^−2 mGy/MBq
Estimated absorbed dose, Liver ([2]; Female (n = 5)): 1.95 ×10^−2 mGy/MBq
Estimated absorbed dose, Lower large intestine wall ([2]; Female (n = 5)): 9.26 ×10^−2 mGy/MBq
Estimated absorbed dose, Lung ([2]; Female (n = 5)): 3.31 ×10^−2 mGy/MBq
Estimated absorbed dose, Muscle ([2]; Female (n = 5)): 0.98 ×10^−2 mGy/MBq
Estimated absorbed dose, Osteogenic cells ([2]; Female (n = 5)): 1.52 ×10^−2 mGy/MBq
Estimated absorbed dose, Ovaries ([2]; Female (n = 5)): 1.66 ×10^−2 mGy/MBq
Estimated absorbed dose, Pancreas ([2]; Female (n = 5)): 1.26 ×10^−2 mGy/MBq
Estimated absorbed dose, Red marrow ([2]; Female (n = 5)): 0.98 ×10^−2 mGy/MBq
Estimated absorbed dose, Skin ([2]; Female (n = 5)): 0.74 ×10^−2 mGy/MBq
Estimated absorbed dose, Small intestine ([2]; Female (n = 5)): 1.30 ×10^−2 mGy/MBq
Estimated absorbed dose, Spleen ([2]; Female (n = 5)): 1.11 ×10^−2 mGy/MBq
Estimated absorbed dose, Stomach wall ([2]; Female (n = 5)): 1.15 ×10^−2 mGy/MBq
Estimated absorbed dose, Thymus ([2]; Female (n = 5)): 1.07 ×10^−2 mGy/MBq
Estimated absorbed dose, Thyroid ([2]; Female (n = 5)): 0.89 ×10^−2 mGy/MBq
Estimated absorbed dose, Total body ([2]; Female (n = 5)): 1.07 ×10^−2 mGy/MBq
Estimated absorbed dose, Upper large intestine wall ([2]; Female (n = 5)): 1.24 ×10^−2 mGy/MBq
Estimated absorbed dose, Urinary bladder wall ([2]; Female (n = 5)): 1.48 ×10^−2 mGy/MBq
Estimated absorbed dose, Uterus ([2]; Female (n = 5)): 1.29 ×10^−2 mGy/MBq
Effective dose ([2]; Male (n = 8)): 0.02 mSv/MBq
Estimated absorbed dose, Adrenals ([2]; Male (n = 8)): 2.22 ×10^−2 mGy/MBq
Estimated absorbed dose, Brain ([2]; Male (n = 8)): 0.59 ×10^−2 mGy/MBq
Estimated absorbed dose, Breasts ([2]; Male (n = 8)): 0.72 ×10^−2 mGy/MBq
Estimated absorbed dose, Gallbladder wall ([2]; Male (n = 8)): 2.01 ×10^−2 mGy/MBq
Estimated absorbed dose, Heart wall ([2]; Male (n = 8)): 2.03 ×10^−2 mGy/MBq
Estimated absorbed dose, Kidneys ([2]; Male (n = 8)): 1.57 ×10^−2 mGy/MBq
Estimated absorbed dose, Liver ([2]; Male (n = 8)): 1.30 ×10^−2 mGy/MBq
Estimated absorbed dose, Lower large intestine wall ([2]; Male (n = 8)): 7.82 ×10^−2 mGy/MBq
Estimated absorbed dose, Lung ([2]; Male (n = 8)): 3.10 ×10^−2 mGy/MBq
Estimated absorbed dose, Muscle ([2]; Male (n = 8)): 0.80 ×10^−2 mGy/MBq
Estimated absorbed dose, Osteogenic cells ([2]; Male (n = 8)): 1.20 ×10^−2 mGy/MBq
Estimated absorbed dose, Pancreas ([2]; Male (n = 8)): 1.03 ×10^−2 mGy/MBq
Estimated absorbed dose, Red marrow ([2]; Male (n = 8)): 0.82 ×10^−2 mGy/MBq
Estimated absorbed dose, Skin ([2]; Male (n = 8)): 0.61 ×10^−2 mGy/MBq
Estimated absorbed dose, Small intestine ([2]; Male (n = 8)): 1.11 ×10^−2 mGy/MBq
Estimated absorbed dose, Spleen ([2]; Male (n = 8)): 0.91 ×10^−2 mGy/MBq
Estimated absorbed dose, Stomach wall ([2]; Male (n = 8)): 0.94 ×10^−2 mGy/MBq
Estimated absorbed dose, Testes ([2]; Male (n = 8)): 0.77 ×10^−2 mGy/MBq
Estimated absorbed dose, Thymus ([2]; Male (n = 8)): 0.90 ×10^−2 mGy/MBq
Estimated absorbed dose, Thyroid ([2]; Male (n = 8)): 0.79 ×10^−2 mGy/MBq
Estimated absorbed dose, Total body ([2]; Male (n = 8)): 0.89 ×10^−2 mGy/MBq
Estimated absorbed dose, Upper large intestine wall ([2]; Male (n = 8)): 1.00 ×10^−2 mGy/MBq
Estimated absorbed dose, Urinary bladder wall ([2]; Male (n = 8)): 1.16 ×10^−2 mGy/MBq
whole-body effective dose ([2]; female animals): 24.5 μSv/MBq
whole-body effective dose ([2]; male animals): 20.5 μSv/MBq
estimated dosimetry (effective dose) ([2]; mouse, in vivo): 0.020 mSv/MBq
critical organ (dosimetry) ([2]; naïve mice): lower large intestine
Effective dose ([2]; range over male and female): 20.5–24.5 μSv/MBq
Structure (SMILES): CC[C@@H](C)N(C)C(=O)c1nc2ccccc2c(-c2ccccc2)c1C[18F] [^18F-LW223]
